{"source": "patent US11474098B2", "about": "“Drug target for preventing pathologic calcium overload in cardiomyocytes and methods of screening for same” (THE TRUSTEES OF COLUMBIA UNIVERSITY IN THE CITY OF NEW YORK, priority 2017, dated 2022)", "key": {"[1]": {"tested_on": "CaV1.2 channels", "description": "Membrane currents from isolated mouse ventricular cardiomyocytes (O'Connell et al. 2007) were measured by the whole-cell patch-clamp method using a MultiClamp 700B amplifier and pCLAMP 10 software (Molecular Devices) as described (Yang et al. 2013). The pipette solution contained (in mM): 40 CsCl, 90 Cs gluconate, 10 BAPTA, 1 MgCl2, 4 Mg-ATP, 2 CaCl2, and 10 HEPES, adjusted to pH 7.2 with CsOH. After the isolated cardiomyocytes were adequately buffered with 10 mM BAPTA in the internal solution, the isolated cardiomyocytes were superfused with (in mM): 140 TEA-CI, 1.8 CaCl2, 1 MgCl2, 10 glucose, and 10 HEPES, adjusted to pH 7.4 with CsOH. For experiments in tsA-201 cells, TEA-CI was reduced to 130 mM, and BaCl2 (10 mM) was used instead of CaCl2. Pipette series resistances were usually <1 MΩ after 60% compensation. Leak currents and capacitance transients were subtracted by a P/4 protocol. Voltages were corrected for the liquid junction potential of −10 mV. To measure Ca^2+ peak currents, the cell membrane potential was held at −50 mV and stepped to +10 mV for 350 ms every 10 seconds. To evaluate the current-voltage (I-V) relationship for Ca^2+ currents, the same protocol was repeated with steps between −50 mV to +50 mV in 10 mV increments. All experiments were performed at room temperature, 22±1° C. The parameters of voltage-dependent activation were obtained using a modified Boltzmann distribution: I(V)=Gmax*(V−Erev)/[1+exp(Vmid−V)/Vc)], where I(V) is peak current, Gmax is maximal conductance, Erev is reversal potential, Vmid is the midpoint, and Vc is the slope factor.\nWe next determined the sensitivity of CaV1.2 channels containing either transgenic pWT α1C or AID-mutant α1C to PKA modulation."}, "[2]": {"tested_on": "CaV1.2 channels", "conditions": "Katchman et al. 2017; cited from earlier work"}, "[3]": {"tested_on": "CaV1.2 channels", "assay": "Whole-cell Ba2+ currents of adenovirus-infected cultured guinea pig ventricular myocytes", "assay_type": "cell-based", "conditions": "control cells expressing GFP or YFP-tagged mutant (YWI/AAA) AID peptide; 1 μM forskolin", "excerpt": "Replication deficient adenoviral vectors expressing AID-YFP and AIDmut-YFP were generated using the AdEasy Adenoviral Vector System (Agilent Technologies) according to the manufacturer's instructions. Briefly, sequences for AID-YFP and AIDmut-YFP were PCR-amplified and cloned into pShuttle-CMV vector. After linearization with PmeI, shuttle vectors were electroporated into BJ5183 cells containing pAdEasy-1 viral plasmid. Positive recombinants were amplified, linearized with Pac I, and transfected into AD-293 cells using the calcium phosphate precipitation method. Transfected cells were monitored for development of adenoviral plaques, after which the cells were freeze-thawed and the lysate used to infect a 10-cm dish of 90% confluent HEK293 cells. Viral expansion and purification was carried out as previously described (Colecraft et al. 2002).\nAdult guinea pig ventricular myocytes were isolated by enzymatic digestion using a Langendorff perfusion apparatuses, and cultured as previously described (Miriyala et al. 2008). […] Heart cells were infected 2-3 hours after plating with 5-20 μl of adenoviral vector stock (≅10^11-10^12 viral particles/ml).\nWhole-cell recordings of virally-infected cultured guinea pig ventricular myocytes were conducted at room temperature as previously described (Miriyala et al. 2008; Xu et al. 2010). […]"}, "[4]": {"tested_on": "phospholamban", "assay": "Immunoblot of phospholamban Ser16 phosphorylation in cardiomyocytes", "assay_type": "cell-based, mouse", "conditions": "AID-mutant transgenic mice cardiomyocytes; 200 nM isoproterenol", "method": "Cells were exposed to 200 nM isoproterenol. Protein extracts were size-fractionated on SDS-PAGE, transferred to nitrocellulose and blotted with anti-pSer16 phospho-specific antibody (upper blot), and anti-PLB antibody (lower blot). Representative of three similar experiments.\nCardiac lysates from 6-12-week-old doxycycline-fed transgenic mice were prepared from either whole hearts or isolated ventricular cardiomyocytes (Yang et al. 2013). Immunoprecipitations were performed in modified RIPA buffer consisting of 50 mM Tris HCl; pH 7.4, 150 mM NaCl, Triton X-100 (0.25%), 10 mM EDTA, 10 mM EGTA, 10 μM Calpain inhibitor I, 10 μM Calpain inhibitor II, and Complete Mini-tablets (1 per 7 ml), using anti-FLAG antibody (Sigma) overnight. Immune complexes were collected using protein A (Amersham) for 2 h, followed by extensive washing. Proteins were size-fractionated, transferred to nitrocellulose membranes and probed with anti-FLAG antibody (Sigma), anti-tubulin antibody (Santa Cruz), custom anti-α1C and anti-β2 antibodies (Yang et al. 2013), and phospholamban antibodies (Badrilla). Detection was performed with a CCD camera (Carestream Imaging), and ImageQuant software was used for quantification. […]"}, "[5]": {"tested_on": "isolated cardiomyocytes", "assay": "Fractional shortening (sarcomere length) of field-stimulated isolated cardiomyocytes", "assay_type": "cell-based, mouse", "conditions": "for increase in fractional shortening: 200 nM isoproterenol with 300 nM nisoldipine, 1-Hz", "method": "Myocytes were field stimulated at 1-Hz. Percent contraction of sarcomere length was measured using the SarcLen module of Ionoptix and calculated as the difference of shortest sarcomere length during a contraction subtracted from the relaxed sarcomere length, divided by the relaxed sarcomere length, all averaged over at least 8 contractions.\nWe next exploited the findings that transgenic β-less AID-mutant α1C channels are insensitive to PKA modulation to probe the specific role of CaV1.2 modulation in the positive inotropic effect of β-adrenergic agonists in both isolated cardiomyocytes and in the whole heart. […] By contrast, this response was severely diminished in cardiomyocytes expressing transgenic β-less AID-mutant α1C channels in which isoproterenol produced a relatively meager 25% increase in fractional shortening (FIG. 10B and FIG. 10C)."}, "[6]": {"tested_on": "left ventricular contraction in isolated Langendorff-perfused hearts", "assay": "Ex vivo cardiac contractility, Langendorff-perfused hearts with left ventricular balloon", "set-up": "species or system mouse", "conditions": "for increase in contractility in response to isoproterenol: native CaV1.2 first inhibited with nisoldipine; for increase in cardiac contractility: 200 nM isoproterenol with 300 nM nisoldipine, paced at 400 beats per minute", "method": "Hearts from these mice are isolated and contractility is assessed by placing a balloon in the left ventricle.\nThe cannulated hearts were retrogradely perfused on a Langendorff system with a modified Krebs solution (118.5 mM NaCl, 25 mM NaHCO3, 4.7 mM KCl, 1.2 mM MgSO4, 1.2 mM KH2PO4, 11 mM glucose, 1.8 mM Ca^2+). Left ventricular pressure was measured using a balloon catheter connected to an APT-300 pressure transducer, which was connected to a Powerlab digitizer (ADInstruments). […] Peak LV pressure during the 3-minute period was used for the assessment of β-adrenergic agonist stimulation.\nWe then assessed the role of CaV1.2 modulation in β-adrenergic agonist-induced positive inotropy at the whole organ level by inserting a pressure-transduced balloon into the left ventricle of Langendorff-perfused transgenic mice hearts. This approach enabled measurement of cardiac contractility independent of vascular or systemic effects. Hearts were paced at 400 beats per minute to remove the potentially confounding effect of heart rate variability on contractility (Kushnir et al. 2014). […] By contrast, using the same experimental paradigm in hearts from β-less AID-mutant transgenic mice, the response to isoproterenol was nearly abolished, yielding an average increase in cardiac contractility of only 1.2-fold (FIG. 10H and FIG. 10I)."}}, "note": "Where two headings read alike, the source gives them in different places.", "data": [{"molecule": "Nc1ncnc2c1nc(Br)n2C1OC2COP(O)(=S)OC2C1O", "note": "(stereo not drawn) [Rp-8-Br-cAMPS]", "values": [{"measurement": "inhibition of nisoldipine-resistant basal current", "setting": "[1]; transgenic AID-mutant mice cardiomyocytes", "result": "did not inhibit"}, {"measurement": "reversal of isoproterenol-mediated up-regulation of endogenous CaV1.2", "setting": "[2]", "result": "~96", "unit": "%"}]}, {"molecule": "C=C[C@@]1(C)CC(=O)[C@]2(O)[C@@]3(C)[C@@H](O)CCC(C)(C)[C@@H]3[C@H](O)[C@H](OC(C)=O)[C@@]2(C)O1", "note": "[forskolin]", "values": [{"measurement": "increase in whole-cell current amplitude", "setting": "[3]", "result": "4- to 5 fold"}, {"measurement": "increase of transgenic pWT α1C Ca2+ currents", "setting": "[1]; transgenic pWT α1C cardiomyocytes, 10 μM forskolin, 300 nM nisoldipine", "result": "1.8+0.1 fold"}]}, {"molecule": "CC(C)NCC(O)c1ccc(O)c(O)c1", "note": "(stereo not drawn) [isoproterenol]", "values": [{"measurement": "shift of Vmid (V0.5) of steady-state activation", "setting": "[1]; GFP-WT β2b cardiomyocytes, 200 nM isoproterenol", "result": "−7.0", "unit": "mV"}, {"measurement": "increase of peak CaV1.2 current", "setting": "[1]; GFP-WT β2 expressing cells, 200 nM isoproterenol", "result": "1.5±0.1", "unit": "fold"}, {"measurement": "shift of Vmid (V0.5) of steady-state activation", "setting": "[1]; GFP-mutant β2b cardiomyocytes, 200 nM isoproterenol", "result": "−7.5", "unit": "mV"}, {"measurement": "increase of peak CaV1.2 current", "setting": "[1]; GFP-mutant β2 expressing cells, 200 nM isoproterenol", "result": "1.6±0.1", "unit": "fold"}, {"measurement": "shift of Vmid in the hyperpolarizing direction", "setting": "[1]; transgenic pWT α1C cardiomyocytes, 200 nM isoproterenol", "result": 4.4, "unit": "mV"}, {"measurement": "increase of nisoldipine-insensitive current", "setting": "[1]; transgenic pWT α1C cardiomyocytes, 200 nM isoproterenol, 300 nM nisoldipine", "result": "1.9±0.1", "unit": "fold"}, {"measurement": "phosphorylation of phospholamban at Ser16 in response to isoproterenol", "setting": "[4]", "result": "appropriately phosphorylated"}, {"measurement": "effect on relaxation of cardiomyocytes", "setting": "[5]; cardiomyocytes from both pWT and AID-mutant α1C transgenic mice", "result": "enhanced relaxation"}, {"measurement": "increase in fractional shortening", "setting": "[5]; transgenic pWT α1C cardiomyocytes", "result": 100, "unit": "%"}, {"measurement": "increase in fractional shortening", "setting": "[5]; β-less AID-mutant α1C cardiomyocytes", "result": 25, "unit": "%"}, {"measurement": "increase in contractility in response to isoproterenol", "setting": "[6]; control mice", "result": "75-200%"}, {"measurement": "increase in contractility in response to isoproterenol", "setting": "[6]; mutant mice (CaV1.2 lacking AID)", "result": "0-25%"}, {"measurement": "increase in cardiac contractility", "setting": "[6]; pWT α1C hearts", "result": 3.3, "unit": "fold"}, {"measurement": "increase in cardiac contractility", "setting": "[6]; β-less AID-mutant transgenic hearts", "result": 1.2, "unit": "fold"}]}]}
